Here are results for 2 substances from US10077290B2, “Stabilized antiviral fusion helices” (priority 2011, dated 2018).

One data set relates to RSV-rA2Line19F. The experiment in a line: Infection of A549 cells at 0.1 MOI, Hep-2 plaque assay titers: RSV-rA2Line19F. The format is cell-based, Respiratory Syncytial Virus (RSV). Conditions: 5 μM peptide. Here is the method:
(§1) In this study A549 cells were plated in a 24 well plate at 30,000 cells/well. The following day, the cells were treated with 5 μM of the indicated stapled SAHF peptide or volume-equivalent DMSO vehicle, followed by infection with RSV-A2, RSV 2-20, or RSV-rA2Line19F within 30 minutes at 0.1 MOI. The supernatant was collected 24 h post infection, and applied to Hep-2 cells that were plated the day prior on a 24 well plate at 60,000 cells/well. Plaque assays were performed on Hep-2 cells using the collected supernatant and titers determined at 5 days post infection of Hep-2 cells. The results of this analysis are shown in FIGS. 15A, 15B and 15C in which titers are shown as pfu/ml and the values represent the mean+/−SEM for two independent experiments (***p<0.001; ****p<0.0001).

In data set [1] the test system is RSV-A2. The experiment in a line: RSV-A2 infection of A549 cells at 1 MOI, Hep-2 plaque assay titers. The format is cell-based, Respiratory Syncytial Virus (RSV). Conditions: 5 μM peptide. The protocol:
In this study A549 cells were plated in a 24 well plate at 30,000 cells/well. The following day, the cells were treated with 5 μM of the indicated stapled SAHF peptide or volume-equivalent DMSO vehicle, followed by RSV-A2 infection at 1 MOI. The cells were infected for 2 h, and the infection medium replaced with 400 μl of DMEM containing 5% FBS and 5 μM of the indicated stapled SAHF peptide. Cells were harvested along with the supernantant 24 h post infection, vortexed for 10 sec, and the supernatant collected, leaving the cell pellet behind. Hep-2 cells were plated on a 24 well plate at 60,000 cells/well the day before use. Plaque assay was performed on Hep-2 cells using the collected supernatant and titers determined at 5 days post infection of Hep-2 cells. The results of this analysis are shown in FIG. 14 in which titers are shown as log 10 pfu/ml and the values represent the mean+/−SEM for two independent experiments (***p<0.001; ****p<0.0001).

The test system of the next data set is RSV 2-20. Put plainly: Infection of A549 cells at 0.1 MOI, Hep-2 plaque assay titers: RSV 2-20. The format is cell-based, Respiratory Syncytial Virus (RSV). Particulars: 5 μM peptide. Here is the method: as §1
Data set [2] has as its system RSV-A2. Put plainly: RSV-A2 lung infection of BALB/c mice after prophylactic intranasal peptide. The class given is in vivo. The protocol:
One hour post treatment, three groups of mice were inoculated with a single dose of RSV-A2 at 1×10^6 pfu/mouse. Peptide dosing and viral inoculation was repeated 16 hours post-infection. The fourth group was treated with volume-equivalent vehicle and mock-infected. Two mice from each group were sacrificed 4 days after the second infection and left lung lobes harvested after 1% paraformaldehyde perfusion, followed by cryopreservation in OCT. Sections (5 μm) were treated with 1:1000 dilution of rabbit anti-RSV polyclonal antibody (Millipore) overnight followed by anti-rabbit antibody conjugated to Alexa Fluor 555 (1:400) (red) (Molecular Probes) for 1 h. Sections were washed and mounted with medium containing DAPI (blue) and viewed with an Olympus fluorescent microscope (FIG. 17A; original magnification 20×). Image J analysis was performed on the acquired images and the percentage RSV-positive cells (red) of total DAPI-positive cells (blue) determined from 8 images (4 sections) per mice (FIG. 17B; .error bars represent mean+/−SEM; *, p<0.0001). Four days after the second infection, bronchoalveolar lavage (BAL) was performed on one mouse from each group and BAL supernatant used to determine the viral titers by plaque assay on Hep-2 cells (FIG. 17C; error bars represent mean+/−SEM of plaques counted per in vivo specimen; *, p<0.05). Also at four days after the second infection, cranial and caudal lobes of the right lung from two mice per group were snap frozen on dry ice. A lung homogenate was generated from the cranial lobe and supernatant subjected to viral titer determination (log 10 pfu/ml) (FIG. 17D; error bars represent mean+/−SEM; *, p<0.05). Total RNA was isolated from the caudal lobe of the right lung and quatitative RT-PCR was performed for the RSV-N gene. The results of this analysis are presented in FIG. 17E in which the bar graphs represent the RSV-N gene expression normalized to the mock-infected tissue.

Data set [3] deals with RSV-A2. The experiment in a line: Infection of A549 cells at 0.1 MOI, Hep-2 plaque assay titers: RSV-A2. The format is cell-based, Respiratory Syncytial Virus (RSV). Particulars: 5 μM peptide. The protocol: as §1
Another data set has as its system RgRSV. Put plainly: Intranasal RgRSV infection of BALB/c mice after intranasal peptide. The format is in vivo. The protocol: One hour post treatment, three groups of mice were inoculated with a single dose of RgRSV at 1×10^6 pfu/mouse, with the fourth group receiving a mock inoculation. Mice were sacrificed at 24 hours post infection and the noses harvested, sectioned, stained with DAPI and imaged with an Olympus fluorescent microscope (FIG. 16A; original magnification 20×). Image J analysis was performed on the acquired images (FIG. 16B) and average GFP positive (green) and DAPI positive (blue) cells were calculated from eight images (4 sections) per mouse (bars represent percent GFP positive of total DAPI-positive cells present in the images and error bars represent mean+/−SEM. *, p<0.001). FIG. 16C depicts the results of hematoxylin and eosin staining of the nose sections (original magnification 20×, insets 100×) In FIG. 16C black arrows highlight thickened mucosa.

A short description of data set [4]: Circular dichroism (CD) alpha-helicity. The class given is physicochemical. Conditions: aqueous solution (pH 7, 35° C.). The protocol:
Compounds are dissolved in an aqueous solution (e.g. 5 mM potassium phosphate solution at pH 7, or distilled H2O, to concentrations of 25-50 μM). Circular dichroism (CD) spectra are obtained on a spectropolarimeter (e.g., Jasco J-710, Aviv) using standard measurement parameters (e.g. temperature, 20° C.; wavelength, 190-260 nm; step resolution, 0.5 nm; speed, 20 nm/sec; accumulations, 10; response, 1 sec; bandwidth, 1 nm; path length, 0.1 cm). The α-helical content of each peptide is calculated by dividing the mean residue ellipticity by the reported value for a model helical decapeptide (Yang et al., Methods Enzymol. 130:208 (1986)).
To document secondary structure improvements of hydrocarbon-stapled peptides, circular dichroism (CD) spectra was recorded and analyzed on a Model 410 Aviv Biomedical spectrometer (Walensky, supra; Bird, supra). […] The target peptide concentration for CD studies is 25-50 μM in 50 mM potassium phosphate (pH 7.5) or Milli-Q deionized water, and exact concentrations are confirmed by quantitative AAA of two CD sample dilutions. […] After conversion to mean residue ellipticity, percent α-helicity can be calculated using the equation, % helicity=100×[θ]222/max[θ]222, where max[θ]222=−40,000×[1−(2.5/number of amino acid residues)]. […]

“Also recorded” adds a separate entry of the source.

For the substance “FD8SISQVNXKINQSLAFI8KSDELLXNVNAGKST (FDXSISQVNXKINQSLAFIXKSDELLXNVNAGKST; two hydrocarbon staples; MOD_RES (3)..(3) Any amino acid; (3)..(10) Crosslink between residues; MOD_RES (10)..(10) Any amino acid; MOD_RES (20)..(20) Any amino acid; (20)..(27) Crosslink between residues; MOD_RES (27)..(27) Any amino acid) [SAHF-H, J]”, the “viral infection by RSV-rA2 Line 19F (titers)” value in the data set with RSV-rA2Line19F is reported as “prevents viral infection”. Further, in the data set on RSV-A2 [1], the “RSV-A2 infection (viral titers)” value is “inhibit RSV-A2 infection of A549 cells”. Also, the “viral infection by RSV 2-20 (titers)” value in the data set on RSV 2-20 is given as “prevents viral infection”. In addition, the “RSV-A2 lung infection, by each measure (RSV-positive cells, BAL and lung homogenate titers, RSV-N gene)” value in the data set with RSV-A2 [2] (125 μM intranasally, dosing and inoculation repeated at 16 hours, 4 days after second infection) was “inhibited RSV infection; also recorded: inhibits RSV-A2 lung infection”. In the data set on RSV-A2 [3], the “viral infection by RSV-A2 (titers)” value was “prevents viral infection”. Further, in the data set with RgRSV (125 μM intranasally one hour before RgRSV, 24 hours post infection), the “intranasal RgRSV infection (percent GFP positive cells in nose sections)” value was “blocks intranasal RgRSV infection”. For the same substance, the “inflammation in nose sections (hematoxylin and eosin staining)” value in the data set with RgRSV (RgRSV-infected, 125 μM intranasally) is on record as “comparatively decreased inflammatory cells”.

Consider “FDASISQVNEKINQSLAFIRKSDELLHNVNAGKST [RSV HR2 (488-522)WT, reference compound]”, for which the “RSV-N gene expression in lung (quantitative RT-PCR)” value in the data set on RSV-A2 [2] (caudal lobe of right lung) is “no observed effect”. For the same substance, the “percent α-helicity” value in data set [4] is reported as approximately 23%.
